Carcinogen call data for four molecules are collected here from PubChem BioAssay AID1259411 (Chemical Carcinogenesis Research Information System (CCRIS), 2018).

The subject of this data set is rodent carcinogenicity bioassays, tumor incidence. In words: CCRIS carcinogenicity studies. In outline:
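Archive of carcinogenicity, mutagenicity, tumor promotion and tumor inhibition results drawn from journals, NCI reports and other sources, expert-reviewed; covers 1985-2011 and is no longer updated.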

The structures appear in SMILES notation. Active and inactive are the calls of the source. The rule behind the calls is not given here.

As for `C[N+](=O)[O-]`, the carcinogen call reads like this: (Species: GUPPIE, Strain/Sex: FEMALE, Route: AQUARIUM WATER, Dose: 0, 10, 30, 70 MG/L FOR 16 MO (STUDY DURATION: 16 MO), Dose: 0, 10, 30, 70 MG/L FOR 16 MO (STUDY DURATION: 16 MO)) “inactive; negative”; (Species: MEDAKA, Strain/Sex: FEMALE, Route: AQUARIUM WATER, Dose: 0, 10, 20, 40 MG/L FOR 13 MO (STUDY DURATION: 13 MO), Dose: 0, 10, 20, 40 MG/L FOR 13 MO (STUDY DURATION: 13 MO)) “inactive; negative”; (Species: MEDAKA, Strain/Sex: MALE, Route: AQUARIUM WATER, Dose: 0, 10, 20, 40 MG/L FOR 13 MO (STUDY DURATION: 13 MO), Dose: 0, 10, 20, 40 MG/L FOR 13 MO (STUDY DURATION: 13 MO)) “inactive; negative”; (Species: MOUSE, Strain/Sex: B6C3F1/FEMALE, Route: INHALATION, Dose: 0, 188, 375, 750 PPM 6 HR/D 5 D/WK FOR 103 WK (STUDY DURATION: 105 WK), Dose: 0, 188, 375, 750 PPM 6 HR/D 5 D/WK FOR 103 WK (STUDY DURATION: 105 WK), Tumor Site: Type of Lesion: HARDERIAN GLAND: ADENOMA, LIVER: HEPATOCELLULAR ADENOMA, LUNG: ALVEOLAR/BRONCHIOLAR ADENOMA, ALVEOLAR/BRONCHIOLAR CARCIN, Tumor Site: Type of Lesion: HARDERIAN GLAND: ADENOMA, LIVER: HEPATOCELLULAR ADENOMA, LUNG: ALVEOLAR/BRONCHIOLAR ADENOMA, ALVEOLAR/BRONCHIOLAR CARCIN) “active; positive”; (Species: MOUSE, Strain/Sex: B6C3F1/MALE, Route: INHALATION, Dose: 0, 188, 375, 750 PPM 6 HR/D 5 D/WK FOR 103 WK (STUDY DURATION: 105 WK), Dose: 0, 188, 375, 750 PPM 6 HR/D 5 D/WK FOR 103 WK (STUDY DURATION: 105 WK), Tumor Site: Type of Lesion: HARDERIAN GLAND: CARCINOMA, ADENOMA, LUNG: ALVEOLAR/BRONCHIOLAR CARCINOMA) “active; positive”; (Species: RAT, Strain/Sex: F344/FEMALE, Route: INHALATION, Dose: 0, 94, 188, 375 PPM 6 HR/D 5 D/WK FOR 103 WK (STUDY DURATION: 104 WK), Dose: 0, 94, 188, 375 PPM 6 HR/D 5 D/WK FOR 103 WK (STUDY DURATION: 104 WK), Tumor Site: Type of Lesion: MAMMARY GLAND: FIBROADENOMA, CARCINOMA) “active; positive”. Moreover, the carcinogen call is “inactive; negative” (Species: RAT, Strain/Sex: F344/MALE, Route: INHALATION, Dose: 0, 94, 188, 375 PPM 6 HR/D 5 D/WK FOR 103 WK (STUDY DURATION: 104 WK), Dose: 0, 94, 188, 375 PPM 6 HR/D 5 D/WK FOR 103 WK (STUDY DURATION: 104 WK)); “inactive; negative” (Species: RAT, Strain/Sex: LONG-EVANS/FEMALE, Route: INHALATION, Dose: 0, 100, 200 PPM 7 HR/D 5 D/WK FOR 2 YR (STUDY DURATION: 2 YR), Dose: 0, 100, 200 PPM 7 HR/D 5 D/WK FOR 2 YR (STUDY DURATION: 2 YR)); “inactive; negative” (Species: RAT, Strain/Sex: LONG-EVANS/MALE, Route: INHALATION, Dose: 0, 100, 200 PPM 7 HR/D 5 D/WK FOR 2 YR (STUDY DURATION: 2 YR), Dose: 0, 100, 200 PPM 7 HR/D 5 D/WK FOR 2 YR (STUDY DURATION: 2 YR)).
As to `[Cd]`, the carcinogen call is “active; positive” (Species: HUMAN, Route: INHALATION, ORAL, DERMAL, Tumor Site: Type of Lesion: PROSTATE GLAND); “active; positive” (Species: RAT, Strain/Sex: F344/MALE,FEMALE, Route: INTRAMUSCULAR, Dose: 5 MG GIVEN IN 2 INJECTIONS AT MONTHLY INTERVALS (STUDY DURATION: 12 MO), Tumor Site: Type of Lesion: INJECTION SITE: FIBROSARCOMA); “active; positive” (Species: RAT, Strain/Sex: LONG-EVANS/FEMALE, Route: INTRAMUSCULAR, Dose: 14, 28 MG, Tumor Site: Type of Lesion: INJECTION SITE: RHABDOMYOSARCOMA, FIBROSARCOMA).
Take `ClC1=C(Cl)C2(Cl)C3C(Cl)C=CC3C1(Cl)C2(Cl)Cl` (stereo not given): the carcinogen call (Species: MOUSE, Strain/Sex: B6C3F1/FEMALE, Route: ORAL, Dose: 0, 9, 18 PPM IN DIET, Dose: 0, 9, 18 PPM IN DIET, Tumor Site: Type of Lesion: LIVER: HEPATOCELLULAR CARCINOMA) was “active; positive”; the carcinogen call (Species: MOUSE, Strain/Sex: B6C3F1/MALE, Route: ORAL, Dose: 0, 6.1, 13.8 PPM IN DIET, TWA, Dose: 0, 6.1, 13.8 PPM IN DIET, TWA, Tumor Site: Type of Lesion: LIVER: HEPATOCELLULAR CARCINOMA) is “active; positive”; the carcinogen call (Species: RAT, Strain/Sex: OSBORNE-MENDEL/FEMALE, Route: ORAL, Dose: 0, 25.7, 51.3 PPM IN DIET FOR 80 WK (STUDY DURATION: 111 WK), Dose: 0, 25.7, 51.3 PPM IN DIET FOR 80 WK (STUDY DURATION: 111 WK), Tumor Site: Type of Lesion: THYROID GLAND: FOLLICULAR CELL CARCINOMA OR ADENOMA) is “equivocal”; the carcinogen call (Species: RAT, Strain/Sex: OSBORNE-MENDEL/MALE, Route: ORAL, Dose: 0, 38.9, 77.9 PPM IN DIET, TWA, Dose: 0, 38.9, 77.9 PPM IN DIET, TWA) is “inactive; negative”.
For the molecule `O[C@H]1C=Cc2c(cc3ccc4cccc5ccc2c3c45)[C@@H]1O`, the carcinogen call runs as follows: (Species: FISH, Strain/Sex: RAINBOW TROUT/MALE,FEMALE, Route: INJECTION, Dose: 0, 0.01, 1 UG INJECTED INTO NEWLY HATCHED SAC-FRY ONCE (STUDY DURATION: 9 MO), Dose: 0, 0.01, 1 UG INJECTED INTO NEWLY HATCHED SAC-FRY ONCE (STUDY DURATION: 9 MO), Tumor Site: Type of Lesion: LIVER: TUMOR) “active; positive”; (Species: FISH, Strain/Sex: RAINBOW TROUT/MALE,FEMALE, Route: INJECTION, Dose: 0, 0.5, 2, 5 UG INJECTED INTO NEWLY HATCHED SAC-FRY (STUDY DURATION: 9 MO), Dose: 0, 0.5, 2, 5 UG INJECTED INTO NEWLY HATCHED SAC-FRY (STUDY DURATION: 9 MO), Tumor Site: Type of Lesion: LIVER: TUMOR) “active; positive”; (Species: MOUSE, Strain/Sex: C57BL/FEMALE, Route: DERMAL, Dose: 0.15, 0.30 UMOL IN ACETONE/NH4OH (1000:1) EVERY 2 WK FOR 60 WK, Tumor Site: Type of Lesion: INTEGUMENTARY SYSTEM (SKIN): SQUAMOUS CELL CARCINOMA) “active; positive”; (Species: MOUSE, Strain/Sex: SWISS/MALE,FEMALE, Route: INTRAPERITONEAL, Dose: 200 NMOL ON FIRST D OF LIFE, 400 NMOL ON D 8, 800 NMOL ON D 15, Tumor Site: Type of Lesion: LUNG: ADENOMA, HEMATOPOIETIC SYSTEM (LEUKEMIA), LYMPHATIC SYSTEM: MALIGNANT LYMPHOMA, Tumor Site: Type of Lesion: LUNG: ADENOMA, HEMATOPOIETIC SYSTEM (LEUKEMIA), LYMPHATIC SYSTEM: MALIGNANT LYMPHOMA) “active; positive”.
